Source: article PMC2706954, “Dissecting Structural and Functional Diversity of the Lantibiotic Mersacidin” (Chemistry & Biology, 2009)
In brackets after ≈: the same amount, converted by molar mass. Several values for one entry are separate records, joined by “and”; a condition that tells them apart may be missing. Equal values may be shown once. Read-outs that look alike come from different tables or passages of the source.

Experiments:
S. aureus R33 MRSA = format: cell-based, Staphylococcus aureus
Protocol: (§1) Antibacterial activity of fermentation samples or purified samples was determined by Mueller-Hinton Agar diffusion bioassays using M. luteus ATCC 4698 as the indicator strain. Susceptibility testing (minimum inhibitory concentration [MIC]) for all aerobic organisms, with the exception of S. pneumoniae, was performed following the recommendations of CLSI. Susceptibility testing of S. pneumoniae was performed by two-fold serial dilutions in brain-heart-infusion broth supplemented with 50 μg/ml Ca^2+. Vancomycin was used as a reference antibiotic, and plates were incubated aerobically, with shaking, for 18–20 hr at 37°C with the MIC defined as the lowest concentration of drug that prevented visible growth.

S. aureus SH1000 = format: cell-based, Staphylococcus aureus
Protocol: as §1

M. luteus ATCC4698 = format: cell-based, Micrococcus luteus
Protocol: as §1

E. faecalis ATCC29212 = format: cell-based
Protocol: as §1

E. faecium 7131121 VRE = format: cell-based
Protocol: as §1

E. faecium ATCC19579 = format: cell-based
Protocol: as §1

S. epidermidis NCTC11047 = format: cell-based
Protocol: as §1

S. pneumoniae BAA-255 = format: cell-based, Streptococcus pneumoniae
Protocol: as §1

[1] = CLSI recommendations, incubated aerobically with shaking 18–20 hr at 37°C, MIC = lowest concentration preventing visible growth, purified variants

| SMILES | MIC S. aureus R33 MRSA (S. aureus R33 MRSA; R33) | MIC S. aureus SH1000 (S. aureus SH1000; SH1000) | MIC M. luteus ATCC4698 (M. luteus ATCC4698; ATCC4698) [µg/mL] | MIC E. faecalis ATCC29212 (E. faecalis ATCC29212; ATCC29212) [µg/mL] | MIC E. faecium 7131121 VRE (E. faecium 7131121 VRE; 7131121 VRE) [µg/mL] | MIC E. faecium ATCC19579 (E. faecium ATCC19579; ATCC19579) [µg/mL] | MIC S. epidermidis NCTC11047 (S. epidermidis NCTC11047; NCTC11047) | MIC S. pneumoniae BAA-255 (S. pneumoniae BAA-255; BAA-255) [µg/mL] | MIC S. aureus R33 MRSA (S. aureus R33 MRSA; [1]) | MIC S. aureus SH1000 (S. aureus SH1000; [1]) [µg/mL] | MIC S. pneumoniae BAA-255 (S. pneumoniae BAA-255; two-fold serial dilutions in brain-heart-infusion broth with 50 μg/ml Ca2+, 18–20 hr at 37°C, MIC = lowest concentration preventing visible growth) [µg/mL] | MIC M. luteus ATCC4698 (M. luteus ATCC4698; [1]) [µg/mL] | MIC E. faecalis ATCC29212 (E. faecalis ATCC29212; [1]) [µg/mL] | MIC E. faecium 7131121 VRE (E. faecium 7131121 VRE; vancomycin-resistant clinical isolate, CLSI recommendations, 18–20 hr at 37°C, MIC = lowest concentration preventing visible growth) [µg/mL] | MIC E. faecium ATCC19579 (E. faecium ATCC19579; [1]) [µg/mL] | MIC S. epidermidis NCTC11047 (S. epidermidis NCTC11047; [1]) [µg/mL] |
| --- | --- | --- | --- | --- | --- | --- | --- | --- | --- | --- | --- | --- | --- | --- | --- | --- |
| C=C1NC(=O)C2NC(=O)[C@H](CC(C)C)NC(=O)C(NC(=O)[C@@H]3CSC(C)C(NC(=O)[C@H](Cc4c[nH]c5ccccc45)NC(=O)C4NC(=O)[C@@H](N)CSC4C)C(=O)N[C@@H](CC(C)C)C(=O)N4CCC[C@H]4C(=O)NCC(=O)NCC(=O)NCC(=O)NCC(=O)N[C@@H](C(C)C)C(=O)N3)C(C)SC[C@H](NC(=O)[C@H](CCC(=O)O)NC1=O)C(=O)N[C@@H]([C@@H](C)CC)C(=O)NC=CSC2C (stereo partly drawn) [F3W] | 8 µg/mL (≈ 4.29 µM) | 16 µg/mL (≈ 8.58 µM) | 0.5 (≈ 0.268 µM) | 32 (≈ 17.2 µM) | 32 (≈ 17.2 µM) | 16 (≈ 8.58 µM) | 8 µg/mL (≈ 4.29 µM) | – | – | – | – | – | – | – | – | – |
| C=C1NC(=O)C2NC(=O)[C@H](CC(C)C)NC(=O)C(NC(=O)[C@@H]3CSC(C)C(NC(=O)[C@H](Cc4ccccc4)NC(=O)C4NC(=O)[C@@H](N)CSC4C)C(=O)N[C@@H](CC(C)C)C(=O)N4CCC[C@H]4C(=O)NCC(=O)N[C@@H](Cc4c[nH]cn4)C(=O)NCC(=O)NCC(=O)N[C@@H](C(C)C)C(=O)N3)C(C)SC[C@H](NC(=O)[C@H](CCC(=O)O)NC1=O)C(=O)N[C@@H]([C@@H](C)CC)C(=O)NC=CSC2C (stereo partly drawn) [G8H] | 64 µg/mL (≈ 33.6 µM) | 64, >64 μg/ml | 8 (≈ 4.2 µM) | >64 | >64 | >64 | 64 µg/mL (≈ 33.6 µM) | 16 (≈ 8.39 µM) | – | – | – | – | – | – | – | – |
| C=C1NC(=O)C2NC(=O)[C@H](CC(C)C)NC(=O)C(NC(=O)[C@@H]3CSC(C)C(NC(=O)[C@H](Cc4ccccc4)NC(=O)C4NC(=O)[C@@H](N)CSC4C)C(=O)N[C@@H](CC(C)C)C(=O)N4CCC[C@H]4C(=O)NCC(=O)N[C@@H](CC(N)=O)C(=O)NCC(=O)NCC(=O)N[C@@H](C(C)C)C(=O)N3)C(C)SC[C@H](NC(=O)[C@H](CCC(=O)O)NC1=O)C(=O)N[C@@H]([C@@H](C)CC)C(=O)NC=CSC2C (stereo partly drawn) [G8N] | – | – | – | – | – | – | – | – | 16 µg/mL and 32 µg/mL | >64 | >64 | 8 (≈ 4.25 µM) | >64 | >64 | >64 | 64 (≈ 34 µM) |
| C=C1NC(=O)C2NC(=O)[C@H](CC(C)C)NC(=O)C(NC(=O)[C@@H]3CSC(C)C(NC(=O)[C@H](Cc4ccccc4)NC(=O)C4NC(=O)[C@@H](N)CSC4C)C(=O)N[C@@H](CC(C)C)C(=O)N4CCC[C@H]4C(=O)NCC(=O)NCC(=O)N[C@@H](C)C(=O)NCC(=O)N[C@@H](C(C)C)C(=O)N3)C(C)SC[C@H](NC(=O)[C@H](CCC(=O)O)NC1=O)C(=O)N[C@@H]([C@@H](C)CC)C(=O)NC=CSC2C (stereo partly drawn) [G9A] | 8 µg/mL (≈ 4.35 µM) | 32 µg/mL (≈ 17.4 µM) | < 4 | >64 | >64 | 64 (≈ 34.8 µM) | 32 µg/mL (≈ 17.4 µM) | 8 (≈ 4.35 µM) | – | – | – | – | – | – | – | – |
| C=C1NC(=O)C2NC(=O)[C@H](CC(C)C)NC(=O)C(NC(=O)[C@@H]3CSC(C)C(NC(=O)[C@H](Cc4ccccc4)NC(=O)C4NC(=O)[C@@H](N)CSC4C)C(=O)N[C@@H](CC(C)C)C(=O)N4CCC[C@H]4C(=O)NCC(=O)NCC(=O)N[C@@H](Cc4c[nH]cn4)C(=O)NCC(=O)N[C@@H](C(C)C)C(=O)N3)C(C)SC[C@H](NC(=O)[C@H](CCC(=O)O)NC1=O)C(=O)N[C@@H]([C@@H](C)CC)C(=O)NC=CSC2C (stereo partly drawn) [G9H] | – | 32 µg/mL (≈ 16.8 µM) | < 4 | >64 | >64 | 64 (≈ 33.6 µM) | 32 µg/mL (≈ 16.8 µM) | 16 (≈ 8.39 µM) | – | – | – | – | – | – | – | – |
| C=C1NC(=O)C2NC(=O)[C@H](CC(C)C)NC(=O)C(NC(=O)[C@@H]3CSC(C)C(NC(=O)[C@H](Cc4ccccc4)NC(=O)C4NC(=O)[C@@H](N)CSC4C)C(=O)N[C@@H](CC(C)C)C(=O)N4CCC[C@H]4C(=O)NCC(=O)NCC(=O)N[C@@H](CO)C(=O)NCC(=O)N[C@@H](C(C)C)C(=O)N3)C(C)SC[C@H](NC(=O)[C@H](CCC(=O)O)NC1=O)C(=O)N[C@@H]([C@@H](C)CC)C(=O)NC=CSC2C (stereo partly drawn) [G9S] | 64, >64 μg/ml | >64 µg/mL | 64 (≈ 34.5 µM) | >64 | >64 | >64 | >64 µg/mL | >64 | – | – | – | – | – | – | – | – |
| C=C1NC(=O)C2NC(=O)[C@H](CC(C)C)NC(=O)C(NC(=O)[C@@H]3CSC(C)C(NC(=O)[C@H](Cc4ccccc4)NC(=O)C4NC(=O)[C@@H](N)CSC4C)C(=O)N[C@@H](CC(C)C)C(=O)N4CCC[C@H]4C(=O)NCC(=O)NCC(=O)NCC(=O)N[C@@H](C)C(=O)N[C@@H](C(C)C)C(=O)N3)C(C)SC[C@H](NC(=O)[C@H](CCC(=O)O)NC1=O)C(=O)N[C@@H]([C@@H](C)CC)C(=O)NC=CSC2C (stereo partly drawn) [G10A] | 64, >64 μg/ml | >64 µg/mL | 8 (≈ 4.35 µM) | >64 | >64 | >64 | 64, >64 μg/ml | 8 (≈ 4.35 µM) | – | – | – | – | – | – | – | – |
| C=C1NC(=O)C2NC(=O)[C@H](CC(C)C)NC(=O)C(NC(=O)[C@@H]3CSC(C)C(NC(=O)[C@H](Cc4ccccc4)NC(=O)C4NC(=O)[C@@H](N)CSC4C)C(=O)N[C@@H](CC(C)C)C(=O)N4CCC[C@H]4C(=O)NCC(=O)NCC(=O)NCC(=O)N[C@@H](CC(N)=O)C(=O)N[C@@H](C(C)C)C(=O)N3)C(C)SC[C@H](NC(=O)[C@H](CCC(=O)O)NC1=O)C(=O)N[C@@H]([C@@H](C)CC)C(=O)NC=CSC2C (stereo partly drawn) [G10N] | 64, >64 μg/ml | >64 µg/mL | 8 (≈ 4.25 µM) | >64 | >64 | >64 | >64 µg/mL | >64 | – | – | – | – | – | – | – | – |
| C=C1NC(=O)C2NC(=O)[C@H](CC(C)C)NC(=O)C(NC(=O)[C@@H]3CSC(C)C(NC(=O)[C@H](Cc4ccccc4)NC(=O)C4NC(=O)[C@@H](N)CSC4C)C(=O)N[C@@H](CC(C)C)C(=O)N4CCC[C@H]4C(=O)NCC(=O)NCC(=O)NCC(=O)N[C@@H](C(C)C)C(=O)N[C@@H](C(C)C)C(=O)N3)C(C)SC[C@H](NC(=O)[C@H](CCC(=O)O)NC1=O)C(=O)N[C@@H]([C@@H](C)CC)C(=O)NC=CSC2C (stereo partly drawn) [G10V] | 64, >64 μg/ml | >64 µg/mL | < 4 | >64 | >64 | >64 | 64 µg/mL (≈ 34.3 µM) | 16 (≈ 8.56 µM) | – | – | – | – | – | – | – | – |
| CC[C@H](C)[C@@H]1NC(=O)[C@@H]2CSC(C)C(NC(=O)[C@@H]3CSC(C)C(NC(=O)[C@H](Cc4ccccc4)NC(=O)C4NC(=O)[C@@H](N)CSC4C)C(=O)N[C@@H](CC(C)C)C(=O)N4CCC[C@H]4C(=O)NCC(=O)NCC(=O)NCC(=O)NCC(=O)N[C@@H](C(C)C)C(=O)N3)C(=O)N[C@@H](CC(C)C)C(=O)NC(C(=O)N[C@@H](C)C(=O)N[C@@H](CCC(=O)O)C(=O)N2)C(C)SC=CNC1=O (stereo partly drawn) [S16A] | 16 µg/mL (≈ 8.75 µM) | 64 µg/mL (≈ 35 µM) | 2 (≈ 1.09 µM) | 64 (≈ 35 µM) | >64 | 32 (≈ 17.5 µM) | 32 µg/mL (≈ 17.5 µM) | 4 (≈ 2.19 µM) | – | – | – | – | – | – | – | – |
